Assay results from ChEMBL document CHEMBL5712891, “Inhibition of BET bromodomain-dependent XIAP and FLIP expression sensitizes KRAS-mutated NSCLC to pro-apoptotic agents” (Cell Death Dis, 2016).
Activity calls are given as the source filed them. The rule behind the calls is not given here.

Legend:
NCI-H1373 [1] = experiment: Induction of apoptosis in human NCI-H1373 cells assessed as necrotic cells at 0.5 uM for 24 hrs by annexin V-PI staining based flow cytometric analysis (reference value: 4.4%); type: functional
DV-90 [2] = experiment: Induction of cell cycle arrest in human DV-90 cells assessed as accumulation of cells at G2/M phase at 1 uM for 24 hrs by Click-iT EdU Alexa Fluor 647 flow cytometric assay kit analysis (reference value: 21%); type: functional
NCI-H460 [3] = experiment: Induction of apoptosis in human NCI-H460 cells assessed as late apoptotic cells at 0.5 uM for 24 hrs by annexin V-PI staining based flow cytometric analysis (reference value: 3.7%); type: functional
NCI-H460 [4] = experiment: Induction of apoptosis in human NCI-H460 cells assessed as viable cells at 2.5 uM for 24 hrs by annexin V-PI staining based flow cytometric analysis (reference value: 92.8%); type: functional; details: read-out: Activity
DV-90 [5] = experiment: Induction of cell cycle arrest in human DV-90 cells assessed as accumulation of cells at G2/M phase at 0.25 uM for 24 hrs by Click-iT EdU Alexa Fluor 647 flow cytometric assay kit analysis (reference value: 21%); type: functional
NCI-H1373 [6] = experiment: Induction of apoptosis in human NCI-H1373 cells assessed as late apoptotic cells at 2.5 uM for 24 hrs by annexin V-PI staining based flow cytometric analysis (reference value: 22.3%); type: functional
NCI-H460 [7] = experiment: Induction of cell cycle arrest in human NCI-H460 cells assessed as accumulation of cells at G0/G1 phase at 0.25 uM for 24 hrs by Click-iT EdU Alexa Fluor 647 flow cytometric assay kit analysis (reference value: 45%); type: functional
DV-90 [8] = experiment: Induction of cell cycle arrest in human DV-90 cells assessed as accumulation of cells at G2/M phase at 0.25 uM for 24 hrs by Click-iT EdU Alexa Fluor 647 flow cytometric assay kit analysis (reference value: 25%); type: functional
NCI-H460 [9] = experiment: Induction of cell cycle arrest in human NCI-H460 cells assessed as accumulation of cells at S phase at 0.5 uM for 24 hrs by Click-iT EdU Alexa Fluor 647 flow cytometric assay kit analysis (reference value: 54%); type: functional
NCI-H460 [10] = experiment: Induction of cell cycle arrest in human NCI-H460 cells assessed as accumulation of cells at S phase at 1 uM for 24 hrs by Click-iT EdU Alexa Fluor 647 flow cytometric assay kit analysis (reference value: 54%); type: functional
NCI-H1373 [11] = experiment: Induction of apoptosis in human NCI-H1373 cells assessed as viable cells at 0.5 uM for 24 hrs by annexin V-PI staining based flow cytometric analysis (reference value: 77.7%); type: functional; details: read-out: Activity
A549 [12] = experiment: Induction of TRAIL dependent apoptosis in human A549 cells by annexin V-PI staining based flow cytometric analysis; type: functional, cell-based
A549 [13] = experiment: Downregulation of c-MYC protein expression level in human A549 cells at 1 uM for 24 hrs by […] analysis; type: functional, cell-based
NCI-H1373 [14] = experiment: Induction of cell cycle arrest in human NCI-H1373 cells assessed as accumulation of cells at G0/G1 phase at 0.1 uM for 24 hrs by Click-iT EdU Alexa Fluor 647 flow cytometric assay kit analysis (reference value: 40%); type: functional
NCI-H1792 = experiment: Downregulation of c-MYC mRNA expression level in human NCI-H1792 cells at 0.1 to 1 uM for 24 hrs by qRT-PCR analysis; type: functional, cell-based; details: dose 0.1-1 µM
NCI-H1373 [15] = experiment: Downregulation of XIAP mRNA expression level in human NCI-H1373 cells at 0.1 to 1 uM for 24 hrs by qRT-PCR analysis; type: functional, cell-based; details: dose 0.1-1 µM
NCI-H1373 [16] = experiment: Induction of apoptosis in human NCI-H1373 cells assessed as late apoptotic cells at 2.5 uM for 24 hrs by annexin V-PI staining based flow cytometric analysis (reference value: 16.2%); type: functional
DV-90 [17] = experiment: Induction of cell cycle arrest in human DV-90 cells assessed as accumulation of cells at G0/G1 phase at 0.25 uM for 24 hrs by Click-iT EdU Alexa Fluor 647 flow cytometric assay kit analysis (reference value: 44%); type: functional
NCI-H2347 [18] = experiment: Downregulation of FLIP mRNA expression level in human NCI-H2347 cells at 0.1 to 1 uM for 24 hrs by qRT-PCR analysis; type: functional, cell-based; details: dose 0.1-1 µM
NCI-H441 = experiment: Downregulation of FLIP mRNA expression level in human NCI-H441 cells at 0.1 to 1 uM for 24 hrs by qRT-PCR analysis; type: functional, cell-based; details: dose 0.1-1 µM
A549 [19] = experiment: Induction of apoptosis in human A549 cells assessed as late apoptotic cells at 1 uM by annexin V-PI based flow cytometric analysis (reference value: 2.5%); type: functional
[20] = Toxicity in SCID mouse xenografted with human A549 cells assessed as body weight loss administered at 80 mg/kg, ip for 28 days relative to control; type: organism-based; details: in vivo, 672 h, time 28 day
DV-90 [21] = experiment: Downregulation of FLIP gene in human DV-90 cells after 24 hrs by microarray profiling analysis; type: functional, cell-based
NCI-H23 = experiment: Downregulation of c-MYC protein expression level in human NCI-H23 cells at 1 uM for 24 hrs by […] analysis; type: functional, cell-based
NCI-H1373 [22] = experiment: Induction of TRAIL dependent apoptosis in human NCI-H1373 cells assessed as late apoptotic cells at 1 uM by annexin V-PI staining based flow cytometric analysis (reference value: 8.3%); type: functional
NCI-H1373 [23] = experiment: Downregulation of c-MYC protein level in human NCI-H1373 cells 1 uM by Western blot analysis; type: functional, cell-based; details: time <= 24.0 hrs, TDE = time-dependent effect
NCI-H2030 = experiment: Downregulation of XIAP protein expression level in human NCI-H2030 cells at 1 uM for 24 hrs by […] analysis; type: functional, cell-based
SK-LU-1 = experiment: Downregulation of FLIP mRNA expression level in human SK-LU-1 cells at 0.1 to 1 uM for 24 hrs by qRT-PCR analysis; type: functional, cell-based; details: dose 0.1-1 µM
A549 [24] = experiment: Induction of cell cycle arrest in human A549 cells assessed as accumulation of cells at S phase at 0.1 uM for 24 hrs by Click-iT EdU Alexa Fluor 647 flow cytometric assay kit analysis (reference value: 35%); type: functional
A549 [25] = experiment: Induction of apoptosis in human A549 cells assessed as viable cells at 1 uM in presence of cisplatin by annexin V-PI based flow cytometric analysis (reference value: 95.7%); type: functional; details: read-out: Activity
A549 [26] = experiment: Antitumor activity against human A549 cells assessed as test to control tumor ratio at 80 mg/kg, ip for 28 days relative to control; type: functional; details: time 28 day
NCI-H1373 [27] = experiment: Induction of cell cycle arrest in human NCI-H1373 cells assessed as accumulation of cells at S phase at 1 uM for 24 hrs by DAPI staining analysis (reference value: 40%); type: functional
NCI-H1373 [28] = experiment: Induction of apoptosis in human NCI-H1373 cells assessed as early apoptotic cells at 0.5 uM for 24 hrs by annexin V-PI staining based flow cytometric analysis (reference value: 0.6%); type: functional
NCI-H2347 [29] = experiment: Downregulation of c-MYC mRNA expression level in human NCI-H2347 cells at 0.1 to 1 uM for 24 hrs by qRT-PCR analysis; type: functional, cell-based; details: dose 0.1-1 µM

Cc1sc2c(c1C)C(c1ccc(Cl)cc1)=N[C@@H](CC(=O)Nc1ccc(O)cc1)c1nnc(C)n1-2 [BIRABRESIB]
Activity (NCI-H1373 [1]): 9.6% | Activity (DV-90 [2]): 22% | Activity (NCI-H460 [3]): 4.6% | viability at 2.5 µM (NCI-H460 [4]): 90.4% | Activity (DV-90 [5]): 26% | Activity (NCI-H1373 [6]): 20.3%

CCNC(=O)C[C@@H]1N=C(c2ccc(Cl)cc2)c2cc(OC)ccc2-n2c(C)nnc21 [MOLIBRESIB]
Activity (NCI-H460 [7]): 43% | Activity (DV-90 [8]): 31% | Activity (NCI-H460 [9]): 46% | Activity (NCI-H460 [10]): 47%

Cc1sc2c(c1C)C(c1ccc(Cl)cc1)=N[C@@H](CC(=O)OC(C)(C)C)c1nnc(C)n1-2
viability at 0.5 µM (NCI-H1373 [11]): 64.3% | Activity (A549 [12]): Active | Activity (A549 [13]): Active | Activity (NCI-H1373 [14]): 44% | Activity (NCI-H1792): Active | Activity (NCI-H1373 [15]): Active | Activity (NCI-H1373 [16]): 21.9% | Activity (DV-90 [17]): 45% | Activity (NCI-H2347 [18]): Active | Activity (NCI-H441): Active | Activity (A549 [19]): 1.2% | Activity [20]: 7% | Activity (DV-90 [21]): Active | Activity (NCI-H23): Active | Activity (NCI-H1373 [22]): 14% | Activity (NCI-H1373 [23]): Tde | Activity (NCI-H2030): Active | Activity (SK-LU-1): Active | Activity (A549 [24]): 36% | viability at 1 µM (A549 [25]): 58.9% | T/C (A549 [26]): 60% | Activity (NCI-H1373 [27]): 7% | Activity (NCI-H1373 [28]): 2.5% | Activity (NCI-H2347 [29]): Active
